Results from patent US20130011528A1 (priority 2010, published 2013).

Key:
[1] = molecular target: galactose oxidase (GAO, EC 1.1.3.9) (Gibberella zeae, UniProt P0CS93); assay type: biochemical; details: GAO biosensor, benzylpenicillin concentration 1000 ppb in milk, glucose and galactose 1.4 mM, 38° C.
[2] = molecular target: glucose oxidase (GOD, EC 1.1.3.4.) (Aspergillus niger, UniProt P13006); experiment: GOD biosensor: oxygen decrease during glucose oxidation in hydrolysed milk with added antibiotic; assay type: biochemical; details: benzylpenicillin concentration 1000 ppb in milk, glucose and galactose 1.4 mM, 38° C.
Sequence of glucose oxidase (GOD, EC 1.1.3.4.) (P13006 17-605, species assumed): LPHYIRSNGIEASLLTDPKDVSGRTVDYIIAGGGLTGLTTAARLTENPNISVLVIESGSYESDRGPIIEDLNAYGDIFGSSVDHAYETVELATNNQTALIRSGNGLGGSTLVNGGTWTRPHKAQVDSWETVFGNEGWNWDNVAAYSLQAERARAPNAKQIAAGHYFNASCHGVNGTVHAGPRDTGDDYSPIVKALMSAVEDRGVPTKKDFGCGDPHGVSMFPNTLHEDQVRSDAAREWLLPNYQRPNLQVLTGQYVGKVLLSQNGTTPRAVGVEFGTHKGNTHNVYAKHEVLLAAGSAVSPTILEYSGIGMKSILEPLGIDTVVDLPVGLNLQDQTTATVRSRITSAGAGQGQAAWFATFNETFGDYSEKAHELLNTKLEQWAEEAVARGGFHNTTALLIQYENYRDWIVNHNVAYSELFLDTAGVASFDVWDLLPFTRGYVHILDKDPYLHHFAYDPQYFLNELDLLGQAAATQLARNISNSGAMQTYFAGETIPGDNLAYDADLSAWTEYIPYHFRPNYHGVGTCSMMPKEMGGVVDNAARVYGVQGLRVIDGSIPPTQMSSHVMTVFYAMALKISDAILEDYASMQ

Sequence of galactose oxidase (GAO, EC 1.1.3.9) (P0CS93 42-680 limits assumed): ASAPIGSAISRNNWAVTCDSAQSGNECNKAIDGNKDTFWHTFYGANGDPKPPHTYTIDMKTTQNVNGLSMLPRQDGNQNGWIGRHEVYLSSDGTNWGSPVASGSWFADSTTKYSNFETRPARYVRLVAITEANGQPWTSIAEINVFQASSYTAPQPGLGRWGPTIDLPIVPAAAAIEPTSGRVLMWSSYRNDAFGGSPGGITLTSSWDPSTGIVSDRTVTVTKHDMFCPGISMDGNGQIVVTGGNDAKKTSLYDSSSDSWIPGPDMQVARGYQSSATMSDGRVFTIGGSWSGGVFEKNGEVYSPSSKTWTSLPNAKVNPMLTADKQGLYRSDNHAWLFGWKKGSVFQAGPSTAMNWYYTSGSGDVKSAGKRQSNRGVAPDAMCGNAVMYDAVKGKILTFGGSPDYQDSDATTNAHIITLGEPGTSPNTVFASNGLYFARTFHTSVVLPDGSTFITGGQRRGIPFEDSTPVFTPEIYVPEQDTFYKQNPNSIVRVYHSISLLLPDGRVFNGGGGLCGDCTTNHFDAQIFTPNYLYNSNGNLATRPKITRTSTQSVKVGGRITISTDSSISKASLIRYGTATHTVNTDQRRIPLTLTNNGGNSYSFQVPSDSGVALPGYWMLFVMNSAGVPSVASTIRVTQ

In the case of `CC1(C)S[C@@H]2[C@H](NC(=O)Cc3ccccc3)C(=O)N2[C@H]1C(=O)O` [benzylpenicillin], the “steady state parameter A” value ([1]; antibiotics-free milk A=0.640) is reported as 0.435, the “kinetic parameter B” value ([1]; antibiotics-free milk B=53.0) is reported as 97.8 s⁻¹ and the “steady state parameter A” value ([2]; antibiotics-free milk A=0.159) is reported as 0.141. The “kinetic parameter B” value ([2]; antibiotics-free milk B=222.2) was 146.0 s⁻¹.
